The values that follow come from ChEMBL document CHEMBL1155039, “Synthetic antimicrobial peptidomimetics with therapeutic potential” (J Med Chem, 2008).

For data set [1], the system named is Staphylococcus aureus. In words: Antibacterial activity against glycopeptide intermediate-resistant Staphylococcus aureus CCUG 43316. Type of data set: functional.
For data set [2], the system named is Escherichia coli. The data set can be described thus: Antibacterial activity against Escherichia coli ATCC 25922. Type of data set: functional.
In data set [3] the test system is Staphylococcus aureus. In words: Antibacterial activity against Staphylococcus aureus ATCC 25923. Type of data set: functional.
Data set [4] is described as follows: Toxicity in human erythrocytes assessed as hemolysis upto 1000 ug/mL. Type of data set: cell-based. Conditions: erythrocyte.
The subject of the next data set is Pseudomonas aeruginosa. In words: Antibacterial activity against Pseudomonas aeruginosa ATCC 27853. Type of data set: functional.
Data set [5] relates to Staphylococcus epidermidis. The data set can be described thus: Antibacterial activity against methicillin-resistant Staphylococcus epidermidis ATCC 27626. The class given is functional.
For data set [6], the system named is Staphylococcus aureus. The data set can be described thus: Antibacterial activity against methicillin-resistant Staphylococcus aureus ATCC 33591. The class given is functional.
In the next data set the test system is Plasma. In words: Stability assessed as degradation in human plasma upto 4 days. Type of data set: ADME, cell-free. To be noted: 96 h.
Data set [7] in a line: Stability assessed as half life in human plasma. Type of data set: ADME, cell-free.
Data set [8] has as its system Escherichia coli. In words: Effect on outer membrane destabilization in Escherichia coli ML-35p at 128 ug/mL. The class given is functional, organism-based.
Data set [9] has as its system Staphylococcus aureus. The data set can be described thus: Antibacterial activity against Staphylococcus aureus ATCC 25923 at 8 times MIC after 30 mins. Type of data set: functional.
The subject of data set [10] is Escherichia coli. In words: Antibacterial activity against Escherichia coli ML-35p. Type of data set: functional.
In data set [11] the test system is Escherichia coli. In words: Effect on inner membrane destabilization in Escherichia coli ML-35p at 256 ug/mL. Type of data set: functional, organism-based.
Data set [12] in a line: Effect on permeability assessed as calcein release from 1-palmitoyl-2-oleoyl-sn-glycero-3-phosphoglycerol vesicle. Type of data set: physicochemical.
Data set [13] can be described thus: Toxicity in human erythrocytes assessed as hemolysis. The class given is cell-based, Erythrocyte.
The subject of data set [14] is Escherichia coli. In words: Antibacterial activity against Escherichia coli ATCC 25922 upto 150 ug/mL. The class given is functional, organism-based.

SMILES strings stand for the structures. Converted amounts (≈) assume the structure as drawn. “And” between values parts separate entries of the source, which are not always exact repeats. Identical values can stand only once. The source made the active and inactive calls. The calls are words filed in the database; no cut-off is given here.

As to `COC(=O)[C@H](CCCNC(=N)N)NC(=O)[C@@H](Cc1c(C(C)(C)C)[nH]c2c(C(C)(C)C)cc(C(C)(C)C)cc12)NC(=O)[C@@H](N)CCCNC(=N)N`, the MIC (as a rule, the lowest concentration that inhibits growth of the organism) against Staphylococcus aureus [1] turned out to be 21 µM (≈ 14.7 µg/mL); with Escherichia coli [2], 72 µM (≈ 50.3 µg/mL); in the data set with Staphylococcus aureus [3], 7.2 µM (≈ 5.03 µg/mL); in the data set with Pseudomonas aeruginosa, 57 µM (≈ 39.8 µg/mL); in data set [5], 3.6 µM (≈ 2.52 µg/mL); against Staphylococcus aureus [6], 7.2 µM (≈ 5.03 µg/mL). Moreover, the Activity entry in data set [4] is recorded as “Not Active”.
With `COC(=O)[C@H](CCCNC(=N)N)NC(=O)[C@H](Cc1c(C(C)(C)C)[nH]c2c(C(C)(C)C)cc(C(C)(C)C)cc12)NC(=O)[C@@H](N)CCCNC(=N)N`, the Activity entry with Plasma is given as “Stable”; in data set [12] it was “Dose-dependent effect”. The half-life (usually the time in which the quantity being followed falls by half) in data set [7] was 2 h. Moreover, the outcome in the data set on Escherichia coli [8] and in the data set with Escherichia coli [11] was Active. Besides, in the data set with Staphylococcus aureus [9], the CFU/ml is reported as 10000. The MIC in the data set on Escherichia coli [10] was 32 µg/mL (≈ 45.8 µM); against Staphylococcus aureus [1], 11 µM (≈ 7.69 µg/mL); with Escherichia coli [2], 29 µM (≈ 20.3 µg/mL); against Staphylococcus aureus [3] it was 7.2 µM (≈ 5.03 µg/mL); with Pseudomonas aeruginosa, 21 µM (≈ 14.7 µg/mL); in [5] it was 1 µg/mL and 1.4 µM. Moreover, 3.6 µM (≈ 2.52 µg/mL) was the least that counted as inhibitory in the data set with Staphylococcus aureus [6] (MIC). In addition, the 50% effective concentration (EC50) (in general, the concentration giving half of the maximal effect) in data set [13] is 1010 µM.
Regarding `CC(C)(C)c1cc(C(C)(C)C)c2[nH]c(C(C)(C)C)c(C[C@H](NC(=O)[C@@H](N)CCCNC(=N)N)C(=O)N[C@@H](CCCNC(=N)N)C(N)=O)c2c1`, the MIC with Staphylococcus aureus [1] came out at 22 µM (≈ 15 µg/mL); in the data set on Escherichia coli [2] it was 88 µM (≈ 60.2 µg/mL); in the data set with Staphylococcus aureus [3], 11 µM (≈ 7.52 µg/mL); against Pseudomonas aeruginosa, 44 µM (≈ 30.1 µg/mL); in data set [5] it was 3.7 µM (≈ 2.53 µg/mL); against Staphylococcus aureus [6] it was 11 µM (≈ 7.52 µg/mL). Also, the Activity result in data set [4] is “Not Active”.
Consider `COC(=O)[C@H](CCCNC(=N)N)NC(=O)[C@H](N)Cc1c(C(C)(C)C)[nH]c2c(C(C)(C)C)cc(C(C)(C)C)cc12`, for which the MIC against Staphylococcus aureus [1] was 55 µM (≈ 29.9 µg/mL); in the data set with Staphylococcus aureus [3], 28 µM (≈ 15.2 µg/mL); against Pseudomonas aeruginosa it was 92 µM (≈ 49.9 µg/mL); in data set [5], 14 µM (≈ 7.6 µg/mL); in the data set with Staphylococcus aureus [6], 28 µM (≈ 15.2 µg/mL). The outcome with Escherichia coli [14] was inactive. For the same compound, the EC50 in data set [13] was determined as 503 µM.
Consider `COC(=O)[C@H](CCCNC(=N)N)NC(=O)[C@@H](N)Cc1c(C(C)(C)C)[nH]c2c(C(C)(C)C)cc(C(C)(C)C)cc12`, for which the MIC was found to be 14 µM (≈ 7.6 µg/mL) in the data set on Staphylococcus aureus [1]; 55 µM (≈ 29.9 µg/mL) against Escherichia coli [2]; 9.2 µM (≈ 4.99 µg/mL) against Staphylococcus aureus [3]; 55 µM (≈ 29.9 µg/mL) with Pseudomonas aeruginosa; 4.6 µM (≈ 2.5 µg/mL) in data set [5]; 9.2 µM (≈ 4.99 µg/mL) against Staphylococcus aureus [6]. In data set [13], the EC50 came to 451 µM.
As for `CC(C)(C)c1cc(C(C)(C)C)c2[nH]c(C(C)(C)C)c(C[C@H](NC(=O)[C@@H](N)CCCNC(=N)N)C(=O)N[C@@H](CCCNC(=N)N)C(=O)NCc3ccccc3)c2c1`, the MIC in the data set with Staphylococcus aureus [1] is 3.2 µM (≈ 2.48 µg/mL); with Escherichia coli [2] it was 9.7 µM (≈ 7.51 µg/mL); against Staphylococcus aureus [3], 3.2 µM (≈ 2.48 µg/mL); in the data set on Pseudomonas aeruginosa it was 6.5 µM (≈ 5.03 µg/mL); in [5], 1.3 µM (≈ 1.01 µg/mL); in the data set on Staphylococcus aureus [6] it was 3.2 µM (≈ 2.48 µg/mL). Also, the EC50 in data set [13] is 116 µM.
In the case of `CC(C)(C)c1cc(C(C)(C)C)c2[nH]c(C(C)(C)C)c(C[C@H](N)C(=O)N[C@@H](CCCNC(=N)N)C(N)=O)c2c1`, the MIC against Staphylococcus aureus [1] is 57 µM (≈ 30.1 µg/mL); with Staphylococcus aureus [3] it was 28 µM (≈ 14.8 µg/mL); against Pseudomonas aeruginosa, 57 µM (≈ 30.1 µg/mL); in data set [5], 14 µM (≈ 7.39 µg/mL); with Staphylococcus aureus [6] it was 28 µM (≈ 14.8 µg/mL). The outcome in the data set with Escherichia coli [14] was inactive. Besides, in [13], the EC50 came to 578 µM.
On to `CC(C)(C)c1cc(C(C)(C)C)c2[nH]c(C(C)(C)C)c(C[C@H](N)C(=O)N[C@@H](CCCNC(=N)N)C(=O)NCc3ccccc3)c2c1`, for which the MIC with Staphylococcus aureus [1] is 8.1 µM (≈ 5 µg/mL); against Escherichia coli [2], 16 µM (≈ 9.89 µg/mL); in the data set with Staphylococcus aureus [3], 4 µM (≈ 2.47 µg/mL); in the data set on Pseudomonas aeruginosa, 12 µM (≈ 7.41 µg/mL); in data set [5] it was 4 µM (≈ 2.47 µg/mL); against Staphylococcus aureus [6], 4 µM (≈ 2.47 µg/mL). The EC50 in data set [13] is 97 µM.
For `CC(C)(C)c1cc(C(C)(C)C)c2[nH]c(C(C)(C)C)c(C[C@H](NC(=O)[C@@H](N)CCCCN)C(=O)N[C@@H](CCCNC(=N)N)C(N)=O)c2c1`, the MIC against Staphylococcus aureus [1] turned out to be 46 µM (≈ 30.2 µg/mL); in the data set on Escherichia coli [2], 107 µM (≈ 70.2 µg/mL); with Staphylococcus aureus [3], 23 µM (≈ 15.1 µg/mL); with Pseudomonas aeruginosa, 76 µM (≈ 49.9 µg/mL); in [5] it was 3.8 µM (≈ 2.49 µg/mL); with Staphylococcus aureus [6], 23 µM (≈ 15.1 µg/mL). Also, the Activity entry in data set [4] is given as “Not Active”.
